Source: patent publication US12583866B2, “Pyrido[2,3-b][1,4]oxazines or tetrahydropyrido[2,3-b][1,4]oxazepines as IAP antagonists” (BEIGENE, LTD., priority 2020, dated 2026)
Counter-ions that a name gives are not always drawn.

Legend:
[1] = molecular target: T1, recombinant human cIAP1-BIR3 protein (Homo sapiens, UniProt Q13490); assay: Recombinant human c-IAP1-BIR3 biochemical assay (HTRF, peptide displacement); details: 1.2 nM cIAP1-BIR3, 3 nM AbuRPF-K(5-Fam)-NH2 peptide, read-out: Protein binding IC50 (nM) c-IAP1
T1 construct: recombinant human cIAP1-BIR3 protein; purchased Reaction biology APT-11-370
T1 sequence (Q13490 253-363 limits assumed): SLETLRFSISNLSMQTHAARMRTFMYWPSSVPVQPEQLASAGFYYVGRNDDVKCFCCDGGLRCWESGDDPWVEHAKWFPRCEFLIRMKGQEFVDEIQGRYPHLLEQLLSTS
In short: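 1.2 nM cIAP1-BIR3 preincubated 1 h at room temperature with compound (10 points, 4-fold, top 10 uM) in 20 mM HEPES pH 7.5, 50 mM NaCl, 1 mM DTT; 3 nM AbuRPF-K(5-Fam)-NH2 then added for 1 h, then anti-6His Tb cryptate for 1 h. 520/490 nm ratio; IC50 by four-parameter logistic fit.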

[2] = molecular target: T2, recombinant human cIAP2-BIR3 protein (Homo sapiens, UniProt Q13489); assay: Recombinant human c-IAP2-BIR3 biochemical assay (HTRF, peptide displacement); details: 3.7 nM cIAP2-BIR3, 3.7 nM AbuRPF-K(5-Fam)-NH2 peptide, read-out: Protein binding IC50 (nM) c-IAP2
T2 construct: recombinant human cIAP2-BIR3 protein; purchased Reaction biology APT-11-372
T2 sequence (Q13489 238-349 limits assumed): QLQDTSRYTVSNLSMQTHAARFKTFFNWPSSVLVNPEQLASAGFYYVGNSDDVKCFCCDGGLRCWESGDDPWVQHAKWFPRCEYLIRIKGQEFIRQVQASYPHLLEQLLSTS
In short: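 3.7 nM protein pre-incubated 1 h at room temperature with compounds (top 10 uM, 4-fold, 10 points) in 20 mM HEPES pH 7.5, 50 mM NaCl, 0.005% Tween-20, 1 mM DTT. Then 3.7 nM AbuRPF-K(5-Fam)-NH2 for 1 h, then anti-6His Tb cryptate 1 h. IC50 from 520/490 nm HTRF ratio, four-parameter logistic fit.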

[3] = molecular target: T3, recombinant human XIAP-BIR3 protein (Homo sapiens, UniProt P98170); assay: Recombinant human XIAP-BIR3 biochemical assay (HTRF, peptide displacement); details: 3.7 nM XIAP-BIR3, 7.6 nM AbuRPF-K(5-Fam)-NH2 peptide, read-out: Protein binding IC50 (nM) XIAP
T3 construct: recombinant human XIAP-BIR3 protein; purchased Reaction biology APT-11-374
T3 sequence (P98170 241-356 limits assumed): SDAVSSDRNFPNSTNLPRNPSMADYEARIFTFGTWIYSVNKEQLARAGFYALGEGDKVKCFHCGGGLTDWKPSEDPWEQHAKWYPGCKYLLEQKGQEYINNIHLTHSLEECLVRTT
In short: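 3.7 nM His-tagged XIAP-BIR3 was preincubated 1 h RT with compound (top 10 µM, 4-fold, 10 points) in 20 mM HEPES pH 7.5, 50 mM NaCl, 0.005% Tween-20, 1 mM DTT. 7.6 nM AbuRPF-K(5-Fam)-NH2 peptide was then added, followed by anti-6His Tb cryptate, 1 h each. HTRF 520/490 nm ratio; four-parameter logistic IC50.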

| SMILES | IC50 [1] | IC50 [2] | IC50 [3] |
| --- | --- | --- | --- |
| C[C@@H]1CN(CC(=O)N2c3cc(Cc4ccc(F)cc4)c(NS(=O)(=O)C4CC4)nc3OC[C@@H]2C)[C@@H](CN2[C@H](C)COC[C@H]2C)CN1 [Compound 123, N—((S)-1-(2-((2R,5R)-2-(((3R,5R)-3,5-dimethylmorpholino)methyl)-5-methylpiperazin-1-yl)acetyl)-7-(4-fluorobenzyl)-2-methyl-2,3-dihydro-1H-pyrido[2,3-b][1,4]oxazin-6-yl)cyclopropanesulfonamide] | 0.2 nM | 0.35 nM | 4.4 nM |
| C[C@@H]1CN(CC(=O)N2c3cc(Cc4ccc(F)cc4)c(C(=O)NC[C@@H]4CCOC4)nc3OC[C@@H]2C)[C@@H](CN2[C@H](C)COC[C@H]2C)CN1 [Compound 95, (S)-1-(2-((2R,5R)-2-(((3R,5R)-3,5-dimethylmorpholino)methyl)-5-methylpiperazin-1-yl)acetyl)-7-(4-fluorobenzyl)-2-methyl-N—(((S)-tetrahydrofuran-3-yl)methyl)-2,3-dihydro-1H-pyrido[2,3-b][1,4]oxazine-6-carboxamide] | 0.19 nM | 0.25 nM | 2.3 nM |
| CCNc1nc2c(cc1Cc1ccc(F)cc1)N(C(=O)CN1C[C@@H](C)NC[C@@H]1CN1[C@H](C)COC[C@H]1C)[C@@H](C)CO2 [Compound 111, 2-((2R,5R)-2-(((3R,5R)-3,5-dimethylmorpholino)methyl)-5-methylpiperazin-1-yl)-1-((S)-6-(ethylamino)-7-(4-fluorobenzyl)-2-methyl-2,3-dihydro-1H-pyrido[2,3-b][1,4]oxazin-1-yl)ethan-1-one] | 0.25 nM | 0.7 nM | 13.9 nM |
| COC[C@@H]1COCCN1C[C@H]1CN[C@H](C)CN1CC(=O)N1c2cc(Cc3ccc(F)cc3)c(CO)nc2OC[C@@H]1C [Compound 52, 1-((S)-7-(4-fluorobenzyl)-6-(hydroxymethyl)-2-methyl-2,3-dihydro-1H-pyrido[2,3-b][1,4]oxazin-1-yl)-2-((2R,5R)-2-(((R)-3-(methoxymethyl)morpholino)methyl)-5-methylpiperazin-1-yl)ethan-1-one] | 0.55 nM | 1.1 nM | 13 nM |
| C[C@@H]1CN(CC(=O)N2c3cc(Cc4ccc(F)cc4)c(NCC(F)(F)F)nc3OC[C@@H]2C)[C@@H](CN2[C@H](C)COC[C@H]2C)CN1 [Compound 112, 2-((2R,5R)-2-(((3R,5R)-3,5-dimethylmorpholino)methyl)-5-methylpiperazin-1-yl)-1-((S)-7-(4-fluorobenzyl)-2-methyl-6-((2,2,2-trifluoroethyl)amino)-2,3-dihydro-1H-pyrido[2,3-b][1,4]oxazin-1-yl)ethan-1-one] | 0.34 nM | 0.63 nM | 4.6 nM |
| CCOC[C@H]1COc2ncc(Cc3ccc(F)cc3)cc2N1C(=O)CN1C[C@@H](C)NC[C@@H]1CN1[C@H](C)COC[C@H]1C [Compound 36] | 0.42 nM | 0.8 nM | 50 nM |
| C[C@@H]1CN(CC(=O)N2c3cc(Cc4ccc(F)cc4)c(C(=O)NCCO)nc3OC[C@@H]2C)[C@@H](CN2[C@H](C)COC[C@H]2C)CN1 [Example 73, (S)-1-(2-((2R,5R)-2-(((3R,5R)-3,5-dimethylmorpholino)methyl)-5-methylpiperazin-1-yl)acetyl)-7-(4-fluorobenzyl)-N-(2-hydroxyethyl)-2-methyl-2,3-dihydro-1H-pyrido[2,3-b][1,4]oxazine-6-carboxamide] | 0.18 nM | 0.29 nM | 4.3 nM |
| CC(C)C(=O)Nc1nc2c(cc1Cc1ccc(F)cc1)N(C(=O)CN1C[C@@H](C)NC[C@@H]1CN1[C@H](C)COC[C@H]1C)[C@@H](C)CO2 [Compound 118, N—((S)-1-(2-((2R,5R)-2-(((3R,5R)-3,5-dimethylmorpholino)methyl)-5-methylpiperazin-1-yl)acetyl)-7-(4-fluorobenzyl)-2-methyl-2,3-dihydro-1H-pyrido[2,3-b][1,4]oxazin-6-yl)isobutyramide] | 0.16 nM | 0.19 nM | 4.8 nM |
| C[C@@H]1CN(CC(=O)N2c3cc(Cc4ccc(F)cc4)c(C(=O)NC[C@H]4CCCO4)nc3OC[C@@H]2C)[C@@H](CN2[C@H](C)COC[C@H]2C)CN1 [Compound 94, (S)-1-(2-((2R,5R)-2-(((3R,5R)-3,5-dimethylmorpholino)methyl)-5-methylpiperazin-1-yl)acetyl)-7-(4-fluorobenzyl)-2-methyl-N—(((R)-tetrahydrofuran-2-yl)methyl)-2,3-dihydro-1H-pyrido[2,3-b][1,4]oxazine-6-carboxamide] | 0.16 nM | 0.28 nM | 3.3 nM |
| C[C@@H]1CN(CC(=O)N2c3cc(Cc4ccc(F)cc4)c(C(N)=O)nc3OC[C@@H]2C)[C@@H](CN2CCOCC2(C)C)CN1 [Example 61, (S)-1-(2-((2R,5R)-2-((3,3-dimethylmorpholino)methyl)-5-methylpiperazin-1-yl)acetyl)-7-(4-fluorobenzyl)-2-methyl-2,3-dihydro-1H-pyrido[2,3-b][1,4]oxazine-6-carboxamide] | 0.43 nM | 1.08 nM | 14 nM |

Continued, values first:

| IC50 [1] | IC50 [2] | IC50 [3] | SMILES |
| --- | --- | --- | --- |
| 0.3 nM | 0.5 nM | 6 nM | C[C@@H]1CN(CC(=O)N2c3cc(Cc4ccc(F)cc4)c(CO)nc3OC[C@@H]2C)[C@@H](CN2CCOC[C@H]2C)CN1 [Compound 25, 1-((S)-7-(4-fluorobenzyl)-6-(hydroxymethyl)-2-methyl-2,3-dihydro-1H-pyrido[2,3-b][1,4]oxazin-1-yl)-2-((2R,5R)-5-methyl-2-(((R)-3-methylmorpholino)methyl)piperazin-1-yl)ethan-1-one] |
| 1.7 nM | 2.8 nM | 25 nM | C[C@@H]1CN(CC(=O)N2c3cc(Cc4ccc(F)cc4)c(CO)nc3OC[C@@H]2C)[C@@H](CN2CCOC[C@H]2CO)CN1 [Compound 54, 1-((S)-7-(4-fluorobenzyl)-6-(hydroxymethyl)-2-methyl-2,3-dihydro-1H-pyrido[2,3-b][1,4]oxazin-1-yl)-2-((2R,5R)-2-(((R)-3-(hydroxymethyl)morpholino)methyl)-5-methylpiperazin-1-yl)ethan-1-one] |
| 1.2 nM | 1.9 nM | 95 nM | COC[C@H]1COc2nc(CO)c(Cc3ccc(F)cc3)cc2N1C(=O)CN1C[C@@H](C)NC[C@@H]1CN1CCOC[C@H]1C [Compound 57, 1-((S)-7-(4-fluorobenzyl)-6-(hydroxymethyl)-2-(methoxymethyl)-2,3-dihydro-1H-pyrido[2,3-b][1,4]oxazin-1-yl)-2-((2R,5R)-5-methyl-2-(((R)-3-methylmorpholino)methyl)piperazin-1-yl)ethan-1-one] |
| 6.4 nM | 27 nM | 33 nM | C[C@@H]1CN(CC(=O)N2c3cc(Cc4ccc(F)cc4)cnc3OC[C@H]2C)[C@@H](CN2CCOC[C@H]2C)CN1 [Compound 19B, 1-((R)-7-(4-fluorobenzyl)-2-methyl-2,3-dihydro-1H-pyrido[2,3-b][1,4]oxazin-1-yl)-2-((2R,5R)-5-methyl-2-(((R)-3-methylmorpholino)methyl)piperazin-1-yl)ethan-1-one] |
| 0.5 nM | 0.9 nM | 26 nM | C[C@@H]1CN(CC(=O)N2CCOc3nc(C#N)c(Cc4ccc(F)cc4)cc32)[C@@H](CN2CCOC[C@H]2C)CN1 [Compound 1, 7-(4-fluorobenzyl)-1-(2-((2R,5R)-5-methyl-2-(((R)-3-methylmorpholino)methyl)piperazin-1-yl)acetyl)-2,3-dihydro-1H-pyrido[2,3-b][1,4]oxazine-6-carbonitrile formate] |
| 1.3 nM | 6.8 nM | 99 nM | C[C@@H]1CN(CC(=O)N2CCOc3nc(C(F)(F)F)c(Cc4ccc(F)cc4)cc32)[C@@H](CN2CCOC[C@H]2C)CN1 [Compound 7, 1-(7-(4-fluorobenzyl)-6-(trifluoromethyl)-2,3-dihydro-1H-pyrido[2,3-b][1,4]oxazin-1-yl)-2-((2R,5R)-5-methyl-2-(((R)-3-methylmorpholino)methyl)piperazin-1-yl)ethan-1-one] |
| 14 nM | 52 nM | 264 nM | CC1CN(C(=O)CN2C[C@@H](C)NC[C@@H]2CN2CCOC[C@H]2C)c2cc(Cc3ccc(F)cc3)cnc2O1 (stereo partly drawn) [Compound 10, 1-(7-(4-fluorobenzyl)-3-methyl-2,3-dihydro-1H-pyrido[2,3-b][1,4]oxazin-1-yl)-2-((2R,5R)-5-methyl-2-(((R)-3-methylmorpholino)methyl)piperazin-1-yl)ethan-1-one] |
